# Values joined by “and” are separate entries in the source; they are usually repeats but may differ in a detail not shown here. Equal entries are not always repeated.
# Experiments:
# [1] = test system: intracellular T. cruzi X10/7 A1 amastigotes
# T. cruzi proteasome = T. cruzi proteasome (Trypanosoma cruzi, UniProt V5BU39+V5C017); experiment: T. cruzi proteasome assay (chymotrypsin-like activity, Suc-LLVY-Rho-110-DPro); settings: for Tc Prot Hill Slope / Tc Prot Max Response (%): individual replicate; for T. cruzi Prot pIC50: mean of at least three independent replicates; for Emax: read-out: Tc Prot Max Response (%), individual replicate
# Method: T. cruzi and human proteasome assays
# (§1) The T. cruzi proteasome was partially purified as described in the above reference and Human
# (§2) 20S proteasome was purchased from Boston Biochem (now R&D Systems, catalogue number
# (§3) a Tecan Fluent to titrate over 11 points in Labcyte Echo-compatible Greiner Bio-One 384 well
# (§4) polypropylene microplates. Subsequently, 100 nl of test compound titrations were transferred
# (§5) to black Greiner Bio-One low volume 384 well microplates using a Labcyte Echo acoustic
# (§6) 50 mM HEPES pH 7.5, 150 mM sodium chloride, 5% Glycerol, 1 mM dithiothreitol, 1 mM
# (§7) CHAPS in deionised, filtered water (all chemicals purchased from Sigma Aldrich). Human 20S
# (§8) These enzyme solutions were prepared immediately prior to assay initiation and stored at 4 °C
# (§9) To monitor the Chymotrypsin-like activity of the T. cruzi and Human 20S proteasome proteins
# (§10) a self-quenched, Rhodamine 110-labelled peptide with the sequence Suc-LLVY-Rho-110-
# (§11) DPro was used (prepared by Cambridge Research Biochemicals. Suc is succinyl, while DPro
# (§12) refers to ᴅ-proline). The peptide was initially prepared from solid as a 10 mM solution in 100%
# (§13) DMSO and stored at -20 °C. Prior to use in the assay, an aliquot was thawed at room
# (§14) to twofold Km. For use with the Human 20S proteasome, the Suc-LLVY-Rho-110-DPro
# (§15) peptide was diluted in assay buffer to a concentration equivalent to twofold Km, which for this
# (§16) enzyme was 2 μM. The peptide solutions were protected from light and stored at 4 °C before
# (§17) A Multidrop Micro (Thermo Fisher), using a low volume dispense cassette, was used to add
# (§18) the assay solutions to the test compounds in the low volume 384-well microplates. Prior to
# (§19) addition of proteasome solution, 5 μl of assay buffer was added to one column (containing 100
# (§20) nl, 100% DMSO) to act as no enzyme control to mimic full inhibition. Subsequently, 5 μl of
# (§21) proteasome solution (either T. cruzi or Human 20S) was added to all wells on the test
# (§22) microplate apart from the column containing 5 μl assay buffer. The microplate was then spun
# (§23) using a suitable bench top centrifuge for 1 minute at 1000 rpm, before incubation at room
# (§24) Following the initial incubation, 5 μl of substrate solution was then added to all wells on the
# (§25) test microplate using a Multidrop Micro equipped with a discrete low volume dispense cassette.
# (§26) The test microplates were then spun for 10 seconds at 1000 rpm before being rapidly moved to
# (§27) a multi-mode microplate reader, capable of monitoring fluorescence intensity. The microplate
# (§28) reader used for these studies was a Tecan M1000 Pro, equipped with quad monochromators.
# (§29) 530 ± 5 nm. A series of fluorescence intensity measurements were taken every 30 seconds for
# (§30) Subsequently, the fluorescence intensity measurements (relative fluorescence units, RFU) were
# (§31) fit to a simple linear regression model (y = A + Bx, where y refers to the fluorescence intensity
# (§32) and x refers to the time in seconds) to determine the initial rate of reaction. The initial rate for
# (§33) every compound concentration tested was then fit a 4-parameter logistic model: y = (A + (B -
# (§34) A)) / (1 + (x / C)D), where y refers to the assay response, x refers to the inhibitor concentration,
# (§35) A and B are the range values (minimum and maximum, respectively), C is the IC50 value and
# (§36) D is the slope. Potency values were then reported as pIC50, which is the negative log of the
# (§37) IC50 (on a molar scale). Data analysis was automated and carried out using the ActivityBase
# Human 20S proteasome = Human 20S proteasome (Homo sapiens, UniProt P28074+P49721); experiment: human proteasome assay (chymotrypsin-like activity, Suc-LLVY-Rho-110-DPro); settings: for Emax: read-out: Hs Prot Max Response (%), individual replicate
# Method: T. cruzi and human proteasome assays
# as §1, §2, §3, §4, §5, §6, §7, §8, §9, §10, §11, §12, §13, §14, §15, §16, §17, §18, §19, §20, §21, §22, §23, §24, §25, §26, §27, §28, §29, §30, §31, §32, §33, §34, §35, §36, §37
# [2] = Mouse microsomal intrinsic clearance; format: in vitro ADME; settings: mouse liver microsomes, scaling 52.5 mg microsomal protein/g liver
# Method: Mouse microsomal intrinsic clearance.
# This assay was conducted as previously described:
# J.; Reid, I. H.; Hill, A. P.;
# were prepared by adding a volume (5 µL) of the 10 mM solution to a volume (195 µL) of […]
# ChromLogD = format: physicochemical; settings: pH 7.4; read-out: Chrom LogDpH7.4
# Method: Chrom LogD was measured as previously described:
# solubility and hydrophobicity. Drug Discov. Today 2010, 15, 648−655. […]
# [3] = T. cruzi Prot pIC50, mean of at least three independent replicates
# [4] = mean of at least three independent replicates
# [5] = Tc Prot pIC50, individual replicate
# Sequence of T. cruzi proteasome (V5BU39 entry or part of it): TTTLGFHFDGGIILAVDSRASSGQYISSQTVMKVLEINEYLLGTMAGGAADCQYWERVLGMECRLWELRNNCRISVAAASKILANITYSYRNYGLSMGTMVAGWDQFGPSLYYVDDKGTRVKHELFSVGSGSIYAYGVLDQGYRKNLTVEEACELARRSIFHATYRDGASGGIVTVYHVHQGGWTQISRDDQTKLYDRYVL
# Sequence of T. cruzi proteasome (V5C017 entry or part of it): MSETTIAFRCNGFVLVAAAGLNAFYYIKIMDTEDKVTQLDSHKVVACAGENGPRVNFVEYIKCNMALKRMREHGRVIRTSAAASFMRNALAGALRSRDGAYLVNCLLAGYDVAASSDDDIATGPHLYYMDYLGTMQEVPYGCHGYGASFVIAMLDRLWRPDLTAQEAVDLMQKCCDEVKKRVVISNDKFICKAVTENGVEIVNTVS
SMILES,EC50 [1],Emax [1],IC50 (T. cruzi proteasome; [3]) [µM],Tc Prot Hill Slope (T. cruzi proteasome),Tc Prot Max Response (%) (T. cruzi proteasome),Hs Prot Max Response (%) (Human 20S proteasome; individual replicate),Hs Prot pIC50 (Human 20S proteasome; individual replicate),Hs Prot pIC50 (Human 20S proteasome; [4]),Mouse CLi [2] [mL/min/g],IC50 (T. cruzi proteasome; [5]),T. cruzi Prot pIC50 (T. cruzi proteasome),Emax (T. cruzi proteasome) [%],chromatographic logD (ChromLogD),EC50 (host VERO cells),Emax (host VERO cells) [%],Emax (Human 20S proteasome) [%]
"O=C(NC1CC1)c1cccc(NC(=O)c2ccc(=O)n(Cc3ccccc3)n2)c1 [Compound 5, 1-Benzyl-N-(3-(cyclopropylcarbamoyl)phenyl)-6-oxo-1,6-dihydropyridazine-3-carboxamide]",7.94 µM,73% and 75% and 70% and 81% and 55% and 80% and 83%,0.631,0.5 and 0.8 and 0.9 and 1.1 and 0.95 and 1.0 and 0.74 and 0.7 and 0.6,105% and 88% and 77% and 79% and 81% and 80% and 73% and 74% and 75% and 78%,18% and 4% and 2% and 9% and 19% and 28% and 3% and 8% and 12% and 13% and 11% and 20% and 10% and 15%,< 4,<4,,,,,,,,
"CN(C(=O)c1ccc(=O)n(Cc2ccccc2)n1)c1cccc(C(=O)NC2CC2)c1 [Compound 6, 1-Benzyl-N-(3-(cyclopropylcarbamoyl)phenyl)-N-methyl-6-oxo-1,6-dihydropyridazine-3-carboxamide]",> 50.1 µM,,> 100,,,28% and 21% and 6%,< 4,<4,11,> 100 µM,complete loss of activity,30,3.3,,,
"CN(C(=O)c1cccc(NC(=O)c2ccc(=O)n(Cc3ccccc3)n2)c1)C1CC1 [Compound 7, 1-Benzyl-N-(3-(cyclopropyl(methyl)carbamoyl)phenyl)-6-oxo-1,6-dihydropyridazine-3-carboxamide]",> 50.1 µM,42%,20,0.8 and 0.75,75% and 49% and 40% and 61%,20% and 27% and 10%,< 4,<4,19,25.1 µM and > 100 µM and 15.8 µM,,,4.5,> 50.1 µM,11,
"O=C(Nc1cccc(C(=O)NC2CC2)c1)c1ccc(=O)n(Cc2ccccc2)c1 [Compound 8, 1-Benzyl-N-(3-(cyclopropylcarbamoyl)phenyl)-6-oxo-1,6-dihydropyridine-3-carboxamide]",> 50.1 µM,,1.58,1.0 and 0.9,85% and 77%,12% and 6%,< 4,<4,0.8,2.51 µM and 2 µM and 0.794 µM,,80,3.3,> 50.1 µM and 39.8 µM and 25.1 µM,,10
"O=C(Nc1ccc(F)c(C(=O)NC2CC2)c1)c1ccc(=O)n(CC2CCCCC2)n1 [Compound 11, 1-(Cyclohexylmethyl)-N-(3-(cyclopropylcarbamoyl)-4-fluorophenyl)-6-oxo-1,6-dihydropyridazine-3-carboxamide]",7.94 µM and 10 µM and 5.01 µM and 6.31 µM,84% and 78% and 86% and 88%,0.398,0.9 and 0.85,87%,13% and 33%,< 4,<4,7.3,0.501 µM and 0.316 µM,,78,5.3,> 50.1 µM,11,
"COc1cccc(Cn2nc(C(=O)Nc3ccc(F)c(C(=O)NC4CC4)c3)ccc2=O)c1 [Compound 13, N-(3-(Cyclopropylcarbamoyl)-4-fluorophenyl)-1-(3-methoxybenzyl)-6-oxo-1,6-dihydropyridazine-3-carboxamide]",> 50.1 µM,23%,> 100,,2% and 10%,7%,< 4,<4,25,> 100 µM,complete loss of potency,,5.5,,,9
"COc1ccc(Cn2nc(C(=O)Nc3ccc(F)c(C(=O)NC4CC4)c3)ccc2=O)cc1F [Compound 15, N-[3-(Cyclopropylcarbamoyl)-4-fluorophenyl]-1-[(3-fluoro-4-methoxy-phenyl)methyl]-6-oxo-pyridazine-3-carboxamide]",0.158 µM,95% and 98% and 93% and 90% and 85% and 94% and 89% and 88%,,,,17% and 16% and 19% and 12% and 6% and 8% and 5% and 1%,< 4,<4,,,,,,,,
"COc1ccc(Cn2nc(C(=O)Nc3ccc(F)c(C(=O)N[C@H]4C[C@H](OC)C4)c3)ccc2=O)cc1 [Compound 19, N-(4-Fluoro-3-((trans-3-methoxycyclobutyl)carbamoyl)phenyl)-1-(4-methoxybenzyl)-6-oxo-1,6-dihydropyridazine-3-carboxamide]",,86% and 80% and 94% and 101% and 90% and 88%,,1.0 and 1.1 and 0.9,84% and 95%,14%,< 4,<4,,0.0316 µM,,78,,,,16
"COc1ccc(Cn2nc(C(=O)Nc3ccc(F)c(C(=O)N[C@H]4C[C@H](OC)C4)c3)ccc2=O)cc1F [Compound 20, N-(4-Fluoro-3-((trans-3-methoxycyclobutyl)carbamoyl)phenyl)-1-(3-fluoro-4-methoxybenzyl)-6-oxo-1,6-dihydropyridazine-3-carboxamide]",,100% and 94% and 92% and 97%,0.00631,0.9,63% and 86%,23%,< 4,<4,,0.00631 µM,,,,,,20
"COc1ccc(Cn2nc(C(=O)Nc3ccc(F)c(C(=O)NCCN4CCOCC4)c3)ccc2=O)cc1F [Compound 22, 1-[(3-Fluoro-4-methoxy-phenyl)methyl]-N-[4-fluoro-3-(2-morpholinoethylcarbamoyl)phenyl]-6-oxo-pyridazine-3-carboxamide]",,99% and 93% and 95% and 97% and 98% and 91% and 96%,,1.0 and 0.9,80% and 81%,7% and 14% and 2%,,,,0.0158 µM,,72,,,,
"COc1ccc(Cn2nc(C(=O)Nc3ccc(F)c(C(=O)N[C@H]4C[C@H](N5CCOCC5)C4)c3)ccc2=O)cc1F [Compound 23, N-(4-Fluoro-3-((trans-3-morpholinocyclobutyl)carbamoyl)phenyl)-1-(3-fluoro-4-methoxybenzyl)-6-oxo-1,6-dihydropyridazine-3-carboxamide]",,96% and 93% and 98% and 95% and 97% and 94%,0.00794,1.2 and 1.1,86%,15% and 17%,< 4,<4,,0.00501 µM,,88,,,,13
"COc1ccc(Cn2nc(C(=O)Nc3ccc(F)c(C(=O)N[C@H]4C[C@@H](N5CCOCC5)C4)c3)ccc2=O)cc1F [Compound 24, N-(4-Fluoro-3-((cis-3-morpholinocyclobutyl)carbamoyl)phenyl)-1-(3-fluoro-4-methoxybenzyl)-6-oxo-1,6-dihydropyridazine-3-carboxamide]",,93% and 95% and 98% and 96%,0.00794,1.1,85% and 87%,6.38% and 29% and 23%,< 4,<4,,0.00631 µM,,82,,,16,
"COc1ccc(Cn2nc(C(=O)Nc3ccc(F)c(C(=O)N[C@H](C)CO)c3)ccc2=O)cc1F [Compound 25, (R)-N-(4-Fluoro-3-((1-hydroxypropan-2-yl)carbamoyl)phenyl)-1-(3-fluoro-4-methoxybenzyl)-6-oxo-1,6-dihydropyridazine-3-carboxamide]",0.398 µM,92% and 96% and 91% and 89% and 95% and 99%,0.0501,1.1 and 0.95 and 0.9 and 1.0,80% and 82% and 79%,0.497% and 2.25% and 10% and 4.33% and 5% and 2.24% and 9%,< 4,<4,,0.0398 µM and 0.0316 µM and 0.0631 µM,,81,,,,
"CNC(=O)c1cc(NC(=O)c2ccc(=O)n(Cc3ccc(OC)c(F)c3)n2)ccc1F [Compound 27, 1-[(3-Fluoro-4-methoxy-phenyl)methyl]-N-[4-fluoro-3-(methylcarbamoyl)phenyl]-6-oxo-pyridazine-3-carboxamide]",0.316 µM,99% and 88% and 89% and 96% and 90% and 97% and 94%,0.00631,1.0 and 0.9,60% and 80% and 81%,3.52%,< 4,<4,,0.00398 µM and 0.01 µM and 0.00794 µM,,,,,,6
